biological target: PD-1/PD-L1 (Homo sapiens (Human), UniProt Q9NZQ7); assay: PD-1/PD-L1 Homogeneous Time-Resolved Fluorescence (HTRF) Binding Assay; conditions: recombinant human PD-1 (3 nM) and PD-L1 (10 nM), 25° C., PBS pH 7.4
How it was run: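 Fc-tagged human PD-1 (25-167, 3 nM) and His-tagged PD-L1 (19-238, 10 nM) preincubated with inhibitor 40 min in PBS pH 7.4, 0.05% Tween-20, 0.1% BSA, 1% DMSO, 25 °C. Binding detected by HTRF (Eu anti-IgG/APC anti-His, 665/620 nm) after 60 min; IC50 from percent control activity.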

Sequence of PD-1/PD-L1 (Q9NZQ7 19-238): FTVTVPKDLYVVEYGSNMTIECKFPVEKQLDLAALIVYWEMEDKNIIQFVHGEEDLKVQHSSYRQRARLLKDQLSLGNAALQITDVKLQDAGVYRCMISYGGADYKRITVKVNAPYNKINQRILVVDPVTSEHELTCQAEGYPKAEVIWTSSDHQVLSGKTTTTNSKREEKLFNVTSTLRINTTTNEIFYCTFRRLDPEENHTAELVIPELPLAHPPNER

Row | IC50 [nM] | Compound
1 | ≤ 10 | Cc1c(Nc2nccc3cc(CN4CC[C@@H](O)C4)cnc23)cccc1-c1cccc(-c2nc3cc(CNCC(C)(C)C(=O)O)cc(C#N)c3o2)c1C [Example 86, (R)-3-((7-cyano-2-(3′-(3-((3-hydroxypyrrolidin-1-yl)methyl)-1,7-naphthyridin-8-ylamino)-2,2′-dimethylbiphenyl-3-yl)benzo[d]oxazol-5-yl)methylamino)-2,2-dimethylpropanoic acid]
2 | ≤ 10 | Cc1c(-c2nc3cc(CN4CCCC[C@H]4C(=O)O)cc(Cl)c3o2)cccc1-c1cccc(NC(=O)c2nc3c(s2)CN(C)CC3)c1Cl [Example 8, (S)-1-((7-chloro-2-(2′-chloro-2-methyl-3′-(5-methyl-4,5,6,7-tetrahydrothiazolo[5,4-c]pyridine-2-carboxamido)-[1,1′-biphenyl]-3-yl)benzo[d]oxazol-5-yl)methyl)piperidine-2-carboxylic acid]
3 | ≤ 10 | Cc1c(-c2nc3cc(CN4CC[C@@](C)(C(=O)O)C4)cc(C#N)c3o2)cccc1-c1cccc(-c2nc3c(s2)CN(C(=O)CN[C@H]2C[C@H](O)C2)C3)c1C [Example 229, (R)-1-((7-cyano-2-(3′-(5-(2-(trans-3-hydroxycyclobutylamino)acetyl)-5,6-dihydro-4H-pyrrolo[3,4-d]thiazol-2-yl)-2,2′-dimethylbiphenyl-3-yl)benzo[d]oxazol-5-yl)methyl)-3-methylpyrrolidine-3-carboxylic acid]
4 | ≤ 10 | Cc1c(-c2nc3cc(CN4CC[C@@H](C(=O)O)C4)cc(C#N)c3o2)cccc1-c1cccc(NC(=O)c2nc3c(n2C)CCN(C)C3)c1Cl [Example 53, (R)-1-((2-(2′-chloro-3′-(1,5-dimethyl-4,5,6,7-tetrahydro-1H-imidazo[4,5-c]pyridine-2-carboxamido)-2-methylbiphenyl-3-yl)-7-cyanobenzo[d]oxazol-5-yl)methyl)pyrrolidine-3-carboxylic acid]
5 | ≤ 10 | Cc1c(-c2nc3cc(CN4CCC(C(=O)O)CC4)cc(C#N)c3o2)cccc1-c1cccc(NC(=O)c2nc3c(n2C)CCNC3)c1Cl [Example 154, 1-((2-(2′-chloro-2-methyl-3′-(1-methyl-4,5,6,7-tetrahydro-1H-imidazo[4,5-c]pyridine-2-carboxamido)biphenyl-3-yl)-7-cyanobenzo[d]oxazol-5-yl)methyl)piperidine-4-carboxylic acid]
6 | ≤ 10 | Cc1c(-c2nc3cc(CN4CC[C@@](C)(C(=O)O)C4)cc(C#N)c3o2)cccc1-c1cccc(-c2nc3c(s2)CN(C(=O)CN2CC(O)C2)C3)c1C [Example 227, (R)-1-((7-cyano-2-(3′-(5-(2-(3-hydroxyazetidin-1-yl)acetyl)-5,6-dihydro-4H-pyrrolo[3,4-d]thiazol-2-yl)-2,2′-dimethylbiphenyl-3-yl)benzo[d]oxazol-5-yl)methyl)-3-methylpyrrolidine-3-carboxylic acid]
7 | ≤ 10 | Cc1c(-c2nc3c(o2)CN(C(=O)CN(C)CCO)C3)cccc1-c1cccc(-c2nc3cc(CN4CC[C@@](C)(C(=O)O)C4)cc(C#N)c3o2)c1C [Example 252, (R)-1-((7-cyano-2-(3′-(5-(N-(2-hydroxyethyl)-N-methylglycyl)-5,6-dihydro-4H-pyrrolo[3,4-d]oxazol-2 yl)-2,2'-dimethyl-[1,1′-biphenyl]-3-yl)benzo[d]oxazol-5-yl)methyl)-3-methylpyrrolidine-3-carboxylic acid]
8 | ≤ 10 | Cc1c(Nc2nccc3cc(CN4CC[C@@H](O)C4)cnc23)cccc1-c1cccc(-c2nc3cc(CN[C@H]4C[C@@H](C(=O)O)C4)cc(C#N)c3o2)c1C [Example 180, cis-3-((7-cyano-2-(3′-(3-(((R)-3-hydroxypyrrolidin-1-yl)methyl)-1,7-naphthyridin-8-ylamino)-2,2′-dimethylbiphenyl-3-yl)benzo [d]oxazol-5-yl)methylamino)cyclobutane carboxylic acid]
9 | ≤ 10 | Cc1c(-c2nc3cc(CN4CC[C@@](C)(C(=O)O)C4)cc(C#N)c3o2)cccc1-c1cccc(-c2nc3c(s2)CN(C(=O)CN(C)C)C3)c1C [Example 109, (R)-1-((7-cyano-2-(3′-(5-(2-(dimethylamino)acetyl)-5,6-dihydro-4H-pyrrolo[3,4-d]thiazol-2-yl)-2,2′-dimethylbiphenyl-3-yl)benzo[d]oxazol-5-yl)methyl)-3-methylpyrrolidine-3-carboxylic acid]
10 | ≤ 10 | Cc1c(Nc2nccc3cc(CN4CCC(C(=O)O)CC4)cnc23)cccc1-c1cccc(-c2nc3cc(CN4CC[C@@H](O)C4)cc(C#N)c3o2)c1C [Example 214, (R)-1-((8-(3′-(7-cyano-5-((3-hydroxypyrrolidin-1-yl)methyl)benzo[d]oxazol-2-yl)-2,2′-dimethylbiphenyl-3-ylamino)-1,7-naphthyridin-3-yl)methyl)piperidine-4-carboxylic acid]
11 | ≤ 10 | Cc1c(Nc2nccc3cc(CCN4CC[C@@H](O)C4)cnc23)cccc1-c1cccc(-c2nc3cc(CN4CC[C@@H](C(=O)O)C4)cc(C#N)c3o2)c1C [Example 167, (R)-1-((7-cyano-2-(3′-(3-(2-((R)-3-hydroxypyrrolidin-1-yl)ethyl)-1,7-naphthyridin-8-ylamino)-2,2′-dimethylbiphenyl-3-yl)benzo[d]oxazol-5-yl)methyl)pyrrolidine-3-carboxylic acid]
12 | ≤ 10 | Cc1c(-c2nc3cc(CN4CC[C@@H](O)C4)cc(C#N)c3o2)cccc1-c1cccc(NC(=O)c2nc3c(n2C)CCN(Cc2ccc(B(O)O)cc2)C3)c1Cl [Example 240, (R)-4-((2-(2-chloro-3′-(7-cyano-5-((3-hydroxypyrrolidin-1-yl)methyl)benzo[d]oxazol-2-yl)-2′-methylbiphenyl-3-ylcarbamoyl)-1-methyl-6,7-dihydro-1H-imidazo[4,5-c]pyridin-5(4H)-yl)methyl)phenylboronic acid]
13 | ≤ 10 | Cc1c(-c2nc3c(s2)CNCC3)cccc1-c1cccc(-c2nc3cc(CN4CC[C@@H](C(=O)O)C4)cc(C#N)c3o2)c1Cl [Example 69, (R)-1-((2-(2-chloro-2′-methyl-3′-(4,5,6,7-tetrahydrothiazolo[5,4-c]pyridin-2-yl)-[1,1′-biphenyl]-3-yl)-7-cyanobenzo[d]oxazol-5-yl)methyl)pyrrolidine-3-carboxylic acid]
14 | ≤ 10 | Cc1c(NC(=O)c2nc3c(n2C)CCN(C(C)C)C3)cccc1-c1cccc(-c2nc3cc(CN4CC[C@H](C(=O)O)C4)cc(C#N)c3o2)c1C [Example 38, (S)-1-((7-cyano-2-(3′-(5-isopropyl-1-methyl-4,5,6,7-tetrahydro-1H-imidazo[4,5-c]pyridine-2-carboxamido)-2,2′-dimethylbiphenyl-3-yl)benzo[d]oxazol-5-yl)methyl)pyrrolidine-3-carboxylic acid]
15 | ≤ 10 | Cc1c(Nc2nccc3cc(C4=NCCN4)cnc23)cccc1-c1cccc(-c2nc3cc(CN4CC[C@@H](C(=O)O)C4)cc(C#N)c3o2)c1C [Example 166, (R)-1-((7-cyano-2-(3′-(3-(4,5-dihydro-1H-imidazol-2-yl)-1,7-naphthyridin-8-ylamino)-2,2′-dimethylbiphenyl-3-yl)benzo[d]oxazol-5-yl)methyl)pyrrolidine-3-carboxylic acid]
16 | ≤ 10 | Cc1c(-c2nc3cc(CN4CC[C@@H](C(=O)O)C4)cc(C#N)c3o2)cccc1-c1cccc(Nc2nccc3nccnc23)c1Cl [Example 14, (R)-1-((2-(2′-chloro-2-methyl-3′-(pyrido[4,3-b]pyrazin-5-ylamino)biphenyl-3-yl)-7-cyanobenzo[d]oxazol-5-yl)methyl)pyrrolidine-3-carboxylic acid]

Reference: patent US10308644B2, “Heterocyclic compounds as immunomodulators” (Incyte Corporation, priority 2016, dated 2019)
